Measurements as given in US20210046071A1, “TETRACYCLIC COMPOUNDS AND THEIR SALTS, COMPOSITIONS, AND METHODS FOR THEIR USE” (Senhwa Biosciences, Inc., priority 2019, published 2021).
Like-named read-outs stand apart in the source and are kept apart here.

Assay: Pharmacokinetic studies in human, Compound I in plasma by LC/MS/MS
Assay type: in vivo
Conditions: for Cmax / Tmax / AUC(0-inf) / half-life / Vd / clearance: human, plasma
Method: Pharmacokinetic studies and dose escalation studies were conducted in adult patients with metastatic, recurrent, locally, advanced, or unresectable solid malignancy (patients with histologically and/or cytologically confirmed solid malignancy), who received prior anti-cancer treatment(s) until disease progression, at 10 different dose levels of Compound I. Groups 1-7 were administered intravenously on days 1 and 8 of a 4-week cycle at 50, 100, 150, 200, 250, 325, and 475 mg/m^2 (lyophilized formulation), respectively. Groups 8-10 were administered intravenously on days 1,8, and 15 of a 4-week cycle at 325, 475, and 650 mg/m^2 (lyophilized formulation), respectively. Each patient received each dose over 1 hour by IV infusion on days described above.
They lyophilized formulation was reconstituted with 5% glucose in sterile water, or similar biologically acceptable fluid, for IV infusion.
For patients in Groups 1-7, blood samples were typically collected at Day 1 at pre-infusion (t=−1 h), during infusion at about 30 minutes (t=−0.5 h), immediately post infusion (t=0 h), 30 min post-infusion, 1 h post-infusion, 2 h post-infusion, 4 h post-infusion, and 6 h post-infusion, as well as at about 24 h post-infusion, 48 h post-infusion, and 72 h post-infusion. On Day 8, blood samples were typically collected at pre-infusion (t=−1 h), during infusion at about 30 minutes (t=−0.5 h), immediately post infusion (t=0 h), 30 min post-infusion, 1 h post-infusion, 2 h post-infusion, 4 h post-infusion, and 6 h post-infusion, as well as at about 24 h post-infusion, and 168 h post-infusion (Day 15).
For patients in Groups 8-10, blood samples were typically collected at Day 1 at pre-infusion (t=−1 h), during infusion at about 30 minutes (t=−0.5 h), immediately post infusion (t=0 h), 30 min post-infusion, 1 h post-infusion, 2 h post-infusion, 4 h post-infusion, and 6 h post-infusion, as well as at about 24 h post-infusion, 48 h post-infusion, and 72 h post-infusion. On Day 8, blood samples were typically collected at pre-infusion (t=−1 h). On Day 15, blood samples were typically collected at pre-infusion (t=−1 h), during infusion at about 30 minutes (t=−0.5 h), immediately post infusion (t=0 h), 30 min post-infusion, 1 h post-infusion, 2 h post-infusion, 4 h post-infusion, and 6 h post-infusion, as well as at about 24 h post-infusion, and 168 h post-infusion (Day 22).
Levels of Compound I in patient's plasma were analyzed by liquid chromatography tandem mass spectrometry (LC/MS/MS) assay. Experimental procedures of the validated methods are summarized below. The pharmacokinetic parameters after first dose and second dose for Groups 1-7 and after first dose and third dose for Groups 8-10 are shown in Tables 2A-2J. In Tables 2A-2J: SD=standard deviation; Cmax=maximum observed concentration; D=dose; Tmax=time to maximum observed concentration; T1/2=elimination half-life; Vd=volume of distribution; CL=drug clearance; and AUC∞=area under the concentration-time curve from time zero to infinity (total exposure).
The concentrations of Compound I in human plasma samples collected from subjects of as discussed above. Compound I concentrations in plasma samples were measured based on 9 levels of calibration standards from 5.00 to 5000 ng/mL, and 3 levels of QC at 15.0 ng/mL (low), 2500 ng/mL (mid), and 4000 ng/mL (high).
Two reference standard master stock solutions of Compound I were prepared by dissolving the Compound 1 reference standard with 50:50:0.1 ACN:diH2O:FA (v/v/v) and sonicating for 7 minutes (diH2O=deionized water). The resulting solutions were further diluted with 50:50:0.1 ACN:diH2O:FA (v/v/v) into a series of working stock solutions (WSS) for spiking of Compound I calibration standards and QC samples. The master stock solutions were prepared fresh on the day of assay, or stored at nominal 2° C. to 8° C. for later use. Master stock solutions were used within the stability timeframe. […]

[1] = Group 1, 50 mg/m^2 IV, Day 1, mean, n = 4
[2] = Group 1, 50 mg/m^2 IV, Day 8, mean, n = 3
[3] = Group 2, 100 mg/m^2 IV, Day 8, mean, n = 3
[4] = Group 3, 150 mg/m^2 IV, Day 1, mean, n = 4
[5] = Group 3, 150 mg/m^2 IV, Day 8, mean, n = 4
[6] = Group 4, 200 mg/m^2 IV, Day 1, mean, n = 4
[7] = Group 4, 200 mg/m^2 IV, Day 8, mean, n = 4
[8] = Group 5, 250 mg/m^2 IV, Day 1, mean, n = 3
[9] = Group 5, 250 mg/m^2 IV, Day 8, mean, n = 3
[10] = Group 6, 325 mg/m^2 IV, Day 1, mean, n = 3
[11] = Group 6, 325 mg/m^2 IV, Day 8, mean, n = 3
[12] = Group 7, 475 mg/m^2 IV, Day 1, mean, n = 3
[13] = Group 7, 475 mg/m^2 IV, Day 8, mean, n = 3
[14] = Group 9, 475 mg/m^2 IV, Day 1, mean, n = 5
[15] = Group 10, 650 mg/m^2 IV, Day 1, mean, n = 5
[16] = Group 10, 650 mg/m^2 IV, Day 15, mean, n = 5
[17] = intravenous, Groups 8-10, Day 1, range of group means
[18] = iv, 50 mg/m2, Group 1, 50 mg/m^2 IV, Day 1, mean, n = 4
[19] = iv, 50 mg/m2, Group 1, 50 mg/m^2 IV, Day 8, mean, n = 3
[20] = iv, 100 mg/m2, Group 2, 100 mg/m^2 IV, Day 1, mean, n = 4
[21] = iv, 100 mg/m2, Group 2, 100 mg/m^2 IV, Day 8, mean, n = 3
[22] = iv, 150 mg/m2, Group 3, 150 mg/m^2 IV, Day 1, mean, n = 4

Cc1cnc(CNC(=O)c2c(=O)c3ccc(N4CCCN(C)CC4)nc3n3c2sc2ccccc23)cn1 [Compound I, 2-(4-Methyl-[1,4]diazepan-1-yl)-5-oxo-5H-7-thia-1,11b-diaza-benzo[c]fluorene-6-carboxylic acid (5-methyl-pyrazin-2-ylmethyl)-amide]
AUC∞/D [1]: 170 ng·h/mL/mg
Cmax/D [1]: 8.14 ng/mL/mg
AUC∞/D [2]: 94.9 ng·h/mL/mg
Cmax/D [2]: 7.23 ng/mL/mg
AUC∞/D (Group 2, 100 mg/m^2 IV, Day 1, mean, n = 3): 38.3 ng·h/mL/mg
Cmax/D (Group 2, 100 mg/m^2 IV, Day 1, mean, n = 4): 5.94 ng/mL/mg
AUC∞/D [3]: 47.4 ng·h/mL/mg
Cmax/D [3]: 3.97 ng/mL/mg
AUC∞/D [4]: 84.5 ng·h/mL/mg
Cmax/D [4]: 5.43 ng/mL/mg
AUC∞/D [5]: 91.1 ng·h/mL/mg
Cmax/D [5]: 5.49 ng/mL/mg
AUC∞/D [6]: 42.7 ng·h/mL/mg
Cmax/D [6]: 26.9 ng/mL/mg
AUC∞/D [7]: 44.5 ng·h/mL/mg
Cmax/D [7]: 3.27 ng/mL/mg
AUC∞/D [8]: 48.0 ng·h/mL/mg
Cmax/D [8]: 3.15 ng/mL/mg
AUC∞/D [9]: 64.6 ng·h/mL/mg
Cmax/D [9]: 1.87 ng/mL/mg
AUC∞/D [10]: 46.9 ng·h/mL/mg
Cmax/D [10]: 2.14 ng/mL/mg
AUC∞/D [11]: 57.8 ng·h/mL/mg
Cmax/D [11]: 2.09 ng/mL/mg
AUC∞/D [12]: 44.0 ng·h/mL/mg
Cmax/D [12]: 2.48 ng/mL/mg
AUC∞/D [13]: 44.1 ng·h/mL/mg
Cmax/D [13]: 2.15 ng/mL/mg
AUC∞/D (Group 8, 325 mg/m^2 IV, Day 1, mean, n = 3): 52.1 ng·h/mL/mg
Cmax/D (Group 8, 325 mg/m^2 IV, Day 1, mean, n = 4): 2.04 ng/mL/mg
Cmax/D (Group 8, 325 mg/m^2 IV, Day 15, mean, n = 4): 35.5 ng/mL/mg
AUC∞/D [14]: 42.7 ng·h/mL/mg
Cmax/D [14]: 2.01 ng/mL/mg
AUC∞/D (Group 9, 475 mg/m^2 IV, Day 15, mean, n = 4): 39.8 ng·h/mL/mg
Cmax/D (Group 9, 475 mg/m^2 IV, Day 15, mean, n = 5): 3.34 ng/mL/mg
AUC∞/D [15]: 46.5 ng·h/mL/mg
Cmax/D [15]: 2.61 ng/mL/mg
AUC∞/D [16]: 48.6 ng·h/mL/mg
Cmax/D [16]: 3.44 ng/mL/mg
Plasma kinetic behavior (all dose levels, Groups 1-10): semi-logarithmic biphasic kinetic behavior
Cmax (intravenous, 200 mg/m2, Groups 1-7, Day 1, range of group means (200 mg/m^2 outlier apart)): 728 to 1940 ng/mL
Cmax (intravenous, 325 mg/m2, Groups 8-10, Day 15, range of group means (325 mg/m^2 outlier apart)): 2870 to 4170 ng/mL
Tmax (intravenous, Groups 1-7, 50 to 475 mg/m^2, Day 1, range of group means): 0.508 to 1.19 h
AUC(0-inf) (intravenous, Groups 1-7, Day 1, range of group means, read-out: Total exposures (AUC∞)): 6650 to 36200 ng·h/mL
half-life (intravenous, Groups 1-7, Day 1 dose, range of group means, read-out: Apparent elimination half-lives): 37.3 to 81.8 h
Cmax (intravenous, Groups 1-7, Day 8, range of group means): 642 to 1710 ng/mL
AUC(0-inf) (intravenous, Groups 1-7, Day 8, range of group means, read-out: Total exposures (AUC∞)): 9120 to 35400 ng·h/mL
half-life (intravenous, Groups 1-7, Day 8 dose, range of group means, read-out: Apparent elimination half-lives): 42.6 to 96.9 h
Cmax [17]: 1140 to 3080 ng/mL
Tmax [17]: 0.767 to 1.18 h
AUC(0-inf) (intravenous, Groups 8-10, Day 1, range of group means, read-out: Total exposures (AUC∞)): 29100 to 57500 ng·h/mL
half-life (intravenous, Groups 8-10, Day 1 dose, range of group means, read-out: Apparent elimination half-lives): 61.5 to 122 h
AUC(0-inf) (intravenous, Groups 8-10, Day 15, range of group means, read-out: Total exposures (AUC∞)): 32500 to 62200 ng·h/mL
half-life (intravenous, Groups 8-10, Day 15 dose, range of group means, read-out: Apparent elimination half-lives): 59 to 93.6 h
Cmax [18]: 728 ng/mL
Tmax [18]: 0.758 h
Vd [18]: 866 L
clearance [18]: 265 mL/min
AUC(0-inf) (iv, 50 mg/m2, Group 1, 50 mg/m^2 IV, Day 1, mean, n = 4, read-out: AUC∞): 16300 ng·h/mL
half-life (iv, 50 mg/m2, Group 1, 50 mg/m^2 IV, Day 1, mean, n = 4, read-out: T1/2 (converted)): 60.1 h
Cmax [19]: 642 ng/mL
Tmax [19]: 1.01 h
Vd [19]: 752 L
clearance [19]: 275 mL/min
AUC(0-inf) (iv, 50 mg/m2, Group 1, 50 mg/m^2 IV, Day 8, mean, n = 3, read-out: AUC∞): 9120 ng·h/mL
half-life (iv, 50 mg/m2, Group 1, 50 mg/m^2 IV, Day 8, mean, n = 3, read-out: T1/2 (converted)): 42.6 h
Vd (iv, 100 mg/m2, Group 2, 100 mg/m^2 IV, Day 1, mean, n = 3): 1400 L
AUC(0-inf) (iv, 100 mg/m2, Group 2, 100 mg/m^2 IV, Day 1, mean, n = 3, read-out: AUC∞): 6650 ng·h/mL
half-life (iv, 100 mg/m2, Group 2, 100 mg/m^2 IV, Day 1, mean, n = 3, read-out: T1/2 (converted)): 37.3 h
Cmax [20]: 1090 ng/mL
Tmax [20]: 0.508 h
Cmax [21]: 804 ng/mL
Tmax [21]: 0.7 h
Vd [21]: 1850 L
AUC(0-inf) (iv, 100 mg/m2, Group 2, 100 mg/m^2 IV, Day 8, mean, n = 3, read-out: AUC∞): 9160 ng·h/mL
half-life (iv, 100 mg/m2, Group 2, 100 mg/m^2 IV, Day 8, mean, n = 3, read-out: T1/2 (converted)): 60.4 h
Cmax [22]: 1230 ng/mL
Tmax [22]: 0.65 h
Vd [22]: 900 L
clearance [22]: 252 mL/min
AUC(0-inf) (iv, 150 mg/m2, Group 3, 150 mg/m^2 IV, Day 1, mean, n = 4, read-out: AUC∞): 20000 ng·h/mL
half-life (iv, 150 mg/m2, Group 3, 150 mg/m^2 IV, Day 1, mean, n = 4, read-out: T1/2 (converted)): 48.1 h
Cmax (iv, 150 mg/m2, Group 3, 150 mg/m^2 IV, Day 8, mean, n = 4): 1270 ng/mL
